Data taken from the supplement of paper PMC11451515.

Assays:
Conditions in all cases: 48 h
[1] = system: NOMO1; experiment: cell viability relative to DMSO control; higher = less cytotoxic
Summary of the method: (§1)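 Library compounds in DMSO were pin-dosed into 1536-well plates (5 μl) holding NOMO1 or SEM (500 cells/well) or P12-Ichikawa (1000 cells/well) leukemia cells, across an 11-point threefold series of 47 μM to 0.79 nM. Each cell line had been adapted for at least four passages in each medium. CellTiter-Glo One luminescence was read after 48 h at 37°C. Viability is the per-plate percentage relative to DMSO wells, with cell-free wells as background.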

[2] = system: P12-Ichikawa; experiment: as above
Summary of the method: as §1

[3] = system: SEM cells; experiment: as above
Summary of the method: as §1

[4] = system: NOMO1; experiment: AUC of viability dose-response curve (% viability x log10 dose units); higher = less sensitive
Summary of the method: (§2)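 Medium-adapted leukemia cells in 1536-well plates, at 500 or 1000 cells/well, were incubated for 48 h at 37°C with library compounds in DMSO at 11 threefold doses from 47 μM to 0.79 nM. CellTiter-Glo One luminescence normalised per plate to DMSO and cell-free wells was fitted with a four-parameter log-logistic model over log10 doses. Area under the curve was integrated from this fit by trapezoidal rule, with curves beyond full viability scaled and failed quality-control curves removed.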

[5] = system: P12-Ichikawa; experiment: as above
Summary of the method: as §2

[6] = system: SEM cells; experiment: as above
Summary of the method: as §2

NC(=O)c1cnc(N[C@@H]2CCCC[C@@H]2N)nc1Nc1cccc(-n2nccn2)c1
cell viability [%]
Conditions | [1] | [2] | [3]
HPLM + 10% dialyzed FBS, 0.000781 µM | 118 | 111 | 105
HPLM + 10% dialyzed FBS, 0.00234 µM | 120 | 117 | 103
HPLM + 10% dialyzed FBS, 0.00702 µM | 123 | 126 | 112
HPLM + 10% dialyzed FBS, 0.0211 µM | 153 | 124 | 111
HPLM + 10% dialyzed FBS, 0.0632 µM | 140 | 122 | 130
HPLM + 10% dialyzed FBS, 0.19 µM | 141 | 132 | 120
HPLM + 10% dialyzed FBS, 0.569 µM | 154 | 136 | 110
HPLM + 10% dialyzed FBS, 1.71 µM | 116 | 128 | 123
HPLM + 10% dialyzed FBS, 5.12 µM | 138 | 123 | 96.5
HPLM + 10% dialyzed FBS, 15.4 µM | 110 | 133 | 44.3
HPLM + 10% dialyzed FBS, 46.1 µM | 75 | 77.6 | 11.6
RPMI 5 mM glucose + 10% FBS, 0.000781 µM | – | – | 84.8
RPMI 5 mM glucose + 10% FBS, 0.00234 µM | – | – | 101
RPMI 5 mM glucose + 10% FBS, 0.00702 µM | – | – | 125
RPMI 5 mM glucose + 10% FBS, 0.0211 µM | – | – | 135
RPMI 5 mM glucose + 10% FBS, 0.0632 µM | – | – | 142
RPMI 5 mM glucose + 10% FBS, 0.19 µM | – | – | 103
RPMI 5 mM glucose + 10% FBS, 0.569 µM | – | – | 125
RPMI 5 mM glucose + 10% FBS, 1.71 µM | – | – | 123
RPMI 5 mM glucose + 10% FBS, 5.12 µM | – | – | 107
RPMI 5 mM glucose + 10% FBS, 15.4 µM | – | – | 40.3
RPMI 5 mM glucose + 10% FBS, 46.1 µM | – | – | 10.7
RPMI 5 mM glucose + 10% dialyzed FBS, 0.000781 µM | – | – | 122
RPMI 5 mM glucose + 10% dialyzed FBS, 0.00234 µM | – | – | 120
RPMI 5 mM glucose + 10% dialyzed FBS, 0.00702 µM | – | – | 122
RPMI 5 mM glucose + 10% dialyzed FBS, 0.0211 µM | – | – | 146
RPMI 5 mM glucose + 10% dialyzed FBS, 0.0632 µM | – | – | 162
RPMI 5 mM glucose + 10% dialyzed FBS, 0.19 µM | – | – | 131
RPMI 5 mM glucose + 10% dialyzed FBS, 0.569 µM | – | – | 148
RPMI 5 mM glucose + 10% dialyzed FBS, 1.71 µM | – | – | 129
RPMI 5 mM glucose + 10% dialyzed FBS, 5.12 µM | – | – | 124
RPMI 5 mM glucose + 10% dialyzed FBS, 15.4 µM | – | – | 58.3
RPMI 5 mM glucose + 10% dialyzed FBS, 46.1 µM | – | – | 34.4

AUC of viability dose-response curve
Conditions | [4] | [5] | [6]
HPLM + 10% dialyzed FBS | 457 | 468 | 419
RPMI 5 mM glucose + 10% FBS | 457 | 462 | 420
RPMI 5 mM glucose + 10% dialyzed FBS | 453 | 471 | 428

OC1=C(O)C2=C(\C=C/C(=O)O2)C=C1
cell viability [%]
Conditions | [1] | [2] | [3]
HPLM + 10% dialyzed FBS, 0.000781 µM | 102 | 99 | 82.7
HPLM + 10% dialyzed FBS, 0.00234 µM | 111 | 104 | 94.1
HPLM + 10% dialyzed FBS, 0.00702 µM | 109 | 114 | 90.2
HPLM + 10% dialyzed FBS, 0.0211 µM | 116 | 107 | 101
HPLM + 10% dialyzed FBS, 0.0632 µM | 113 | 101 | 65.4
HPLM + 10% dialyzed FBS, 0.19 µM | 108 | 119 | 102
HPLM + 10% dialyzed FBS, 0.569 µM | 103 | 114 | 98.4
HPLM + 10% dialyzed FBS, 1.71 µM | 109 | 117 | 103
HPLM + 10% dialyzed FBS, 5.12 µM | 111 | 114 | 99.1
HPLM + 10% dialyzed FBS, 15.4 µM | 115 | 107 | 93.9
HPLM + 10% dialyzed FBS, 46.1 µM | 128 | 81.1 | 9.29
RPMI 5 mM glucose + 10% FBS, 0.000781 µM | 99.7 | 109 | 91.8
RPMI 5 mM glucose + 10% FBS, 0.00234 µM | 105 | 115 | 106
RPMI 5 mM glucose + 10% FBS, 0.00702 µM | 105 | 118 | 98.1
RPMI 5 mM glucose + 10% FBS, 0.0211 µM | 116 | 110 | 91.6
RPMI 5 mM glucose + 10% FBS, 0.0632 µM | 106 | 99.4 | 70
RPMI 5 mM glucose + 10% FBS, 0.19 µM | 96.5 | 113 | 91.8
RPMI 5 mM glucose + 10% FBS, 0.569 µM | 97.3 | 124 | 98.3
RPMI 5 mM glucose + 10% FBS, 1.71 µM | 110 | 116 | 102
RPMI 5 mM glucose + 10% FBS, 5.12 µM | 97.1 | 112 | 102
RPMI 5 mM glucose + 10% FBS, 15.4 µM | 107 | 109 | 93.5
RPMI 5 mM glucose + 10% FBS, 46.1 µM | 99.4 | 68 | 7.55
RPMI 5 mM glucose + 10% dialyzed FBS, 0.000781 µM | 105 | 95.1 | 83.2
RPMI 5 mM glucose + 10% dialyzed FBS, 0.00234 µM | 102 | 109 | 101
RPMI 5 mM glucose + 10% dialyzed FBS, 0.00702 µM | 108 | 104 | 98.9
RPMI 5 mM glucose + 10% dialyzed FBS, 0.0211 µM | 107 | 104 | 102
RPMI 5 mM glucose + 10% dialyzed FBS, 0.0632 µM | 99.8 | 101 | 78.8
RPMI 5 mM glucose + 10% dialyzed FBS, 0.19 µM | 127 | 97.5 | 101
RPMI 5 mM glucose + 10% dialyzed FBS, 0.569 µM | 111 | 98 | 112
RPMI 5 mM glucose + 10% dialyzed FBS, 1.71 µM | 101 | 107 | 101
RPMI 5 mM glucose + 10% dialyzed FBS, 5.12 µM | 107 | 105 | 90.4
RPMI 5 mM glucose + 10% dialyzed FBS, 15.4 µM | 110 | 103 | 90.3
RPMI 5 mM glucose + 10% dialyzed FBS, 46.1 µM | 112 | 58.3 | 9.04

AUC of viability dose-response curve
Conditions | [4] | [5] | [6]
HPLM + 10% dialyzed FBS | 454 | 470 | 423
RPMI 5 mM glucose + 10% FBS | 469 | 466 | 430
RPMI 5 mM glucose + 10% dialyzed FBS | 465 | 467 | 436

CC(=O)Oc1ccccc1C(=O)O
cell viability [%]
Conditions | [1] | [2] | [3]
HPLM + 10% dialyzed FBS, 0.000781 µM | 106 | 99.8 | 104
HPLM + 10% dialyzed FBS, 0.00234 µM | 107 | 96.4 | 99.4
HPLM + 10% dialyzed FBS, 0.00702 µM | 104 | 102 | 105
HPLM + 10% dialyzed FBS, 0.0211 µM | 105 | 93.9 | 106
HPLM + 10% dialyzed FBS, 0.0632 µM | 115 | 101 | 102
HPLM + 10% dialyzed FBS, 0.19 µM | 107 | 101 | 106
HPLM + 10% dialyzed FBS, 0.569 µM | 107 | 96.6 | 105
HPLM + 10% dialyzed FBS, 1.71 µM | 99.2 | 95.5 | 97.3
HPLM + 10% dialyzed FBS, 5.12 µM | 88 | 90.3 | 88.2
HPLM + 10% dialyzed FBS, 15.4 µM | 98.9 | 96.4 | 99.9
HPLM + 10% dialyzed FBS, 46.1 µM | 103 | 101 | 96.7
RPMI 5 mM glucose + 10% FBS, 0.000781 µM | 93.8 | 106 | 110
RPMI 5 mM glucose + 10% FBS, 0.00234 µM | 95.9 | 101 | 104
RPMI 5 mM glucose + 10% FBS, 0.00702 µM | 92.9 | 104 | 100
RPMI 5 mM glucose + 10% FBS, 0.0211 µM | 88.4 | 98.6 | 120
RPMI 5 mM glucose + 10% FBS, 0.0632 µM | 97.9 | 101 | 107
RPMI 5 mM glucose + 10% FBS, 0.19 µM | 87.4 | 86.5 | 104
RPMI 5 mM glucose + 10% FBS, 0.569 µM | 95.2 | 87.3 | 120
RPMI 5 mM glucose + 10% FBS, 1.71 µM | 106 | 105 | 111
RPMI 5 mM glucose + 10% FBS, 5.12 µM | 88.3 | 95.9 | 99.3
RPMI 5 mM glucose + 10% FBS, 15.4 µM | 101 | 96.4 | 105
RPMI 5 mM glucose + 10% FBS, 46.1 µM | 90.4 | 99.3 | 95.1
RPMI 5 mM glucose + 10% dialyzed FBS, 0.000781 µM | 97.7 | 97.2 | 102
RPMI 5 mM glucose + 10% dialyzed FBS, 0.00234 µM | 104 | 97.5 | 99.4
RPMI 5 mM glucose + 10% dialyzed FBS, 0.00702 µM | 106 | 98.7 | 109
RPMI 5 mM glucose + 10% dialyzed FBS, 0.0211 µM | 109 | 105 | 111
RPMI 5 mM glucose + 10% dialyzed FBS, 0.0632 µM | 110 | 101 | 108
RPMI 5 mM glucose + 10% dialyzed FBS, 0.19 µM | 93.4 | 93.6 | 102
RPMI 5 mM glucose + 10% dialyzed FBS, 0.569 µM | 91.8 | 89.2 | 113
RPMI 5 mM glucose + 10% dialyzed FBS, 1.71 µM | 105 | 99.6 | 108
RPMI 5 mM glucose + 10% dialyzed FBS, 5.12 µM | 88.4 | 93.2 | 108
RPMI 5 mM glucose + 10% dialyzed FBS, 15.4 µM | 94.9 | 104 | 100
RPMI 5 mM glucose + 10% dialyzed FBS, 46.1 µM | 96.6 | 103 | 111

AUC of viability dose-response curve
Conditions | [4] | [5] | [6]
HPLM + 10% dialyzed FBS | 461 | 466 | 463
RPMI 5 mM glucose + 10% FBS | 450 | 450 | 466
RPMI 5 mM glucose + 10% dialyzed FBS | 452 | 450 | 469
